In PubChem BioAssay (NCI):
Values joined by “and” are separate entries in the source; they are usually repeats but may differ in a detail not shown here. Equal entries are not always repeated.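 Compound exposure: 48 hours, 5 concentrations, 96-well plates. GI50 is the concentration that inhibits growth by half. TGI marks complete inhibition of growth.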

test system: NCI/ADR-RES ovarian; test: NCI anticancer screen, dose series, 48 h

| Structure (SMILES) | GI50 [µM] | TGI |
| --- | --- | --- |
| O=C(O)c1cccc(COc2ccc([N+](=O)[O-])cc2Cl)c1 | > 100 | > 100 µM |
| COc1cc2c(/C=N\N=C(N)N)c[nH]c2cc1C | 22 | 59.4 µM |
| O=C1c2ccccc2-c2c1c1ccccc1c(=O)n2CCN1CCNCC1 | 2.55 | 11.4 µM |
| Cc1ccc(OCCOCCOCCOCCOc2ccc(C)n(O)c2=S)c(=S)n1O | < 0.0158 | > 100 µM |
| CN(C)C(=S)SSC(=S)N(C)C | – | 30.4 µM and 36 µM |
| COc1ccc(C(CC(=O)c2ccc3c(c2)OCO3)c2c(O)c3ccccc3oc2=O)cc1OC (centres undefined) | – | > 100 µM |
| CCC/C=C/C=C/C1CC(O)C(O)C(=O)C1CO (centres undefined) | – | > 100 µM |

test system: OVCAR-3 ovarian; test: NCI anticancer screen, dose series, 48 h

| Structure (SMILES) | GI50 [µM] | TGI [µM] |
| --- | --- | --- |
| O=C1CCCN1c1ccccc1I(=O)=O | > 100 | > 100 |
| O=C(O)c1cccc(COc2ccc([N+](=O)[O-])cc2Cl)c1 | 50.3 | > 100 |
| Nc1ccccc1C(=O)/C=C/c1c(O)ccc2ccccc12 | – | > 100 |
| CCC(C)(O)c1cnc(CC(C)C)c(=O)n1O (centres undefined) | – | 81.6 |
| CCC1CN2CCc3cc(OC)c(OC)cc3C2CC1CC1c2cc(OC)c(OC)cc2CCN1C(=O)C1CCCN1 (centres undefined) | – | 90 |
| CC(C(=O)c1ccc(Cl)cc1)/C(=N/NC(=O)NN)C(=O)Nc1cccc(C(F)(F)F)c1 (centres undefined) | – | > 100 |
| COc1cc2c(/C=N\N=C(N)N)c[nH]c2cc1C | 13.5 | 27.3 |
| CCOP(=O)(OCC)C(C(=O)OC)C(=O)C(=O)Nc1ccc(Cl)cc1Cl (centres undefined) | – | > 100 |
| Cn1cc(-c2csc(-c3cn(CCCCN4CCCCC4)c4ccccc34)n2)c2cccnc21 | 1.71 | 3.13 |
| CC(C)=C1CCC(CN(C)C)C1=O (centres undefined) | – | 31.7 |
| COc1cccc(/C=N/[N-]C(=O)c2ccncc2)c1[O-].COc1cccc(/C=N/[N-]C(=O)c2ccncc2)c1[O-].[O]=[U](=[O])([OH2+])[OH2+] | 3.08 | > 100 |
| ClC(Cl)=C1C(=C(Cl)Cl)C(Cl)(Cl)C1(Cl)Cl | – | 14.1 |
| CC(C)(C)c1ccc2c(c1)S(=O)(=O)Nc1ccc(Cl)cc1NS(=O)(=O)c1cc(C(C)(C)C)ccc1OCCOCCOCCO2 | – | > 100 |
| O=C1c2ccccc2-c2c1c1ccccc1c(=O)n2CCN1CCNCC1 | 1.12 | 6.93 |
| Cc1ccc(OCCOCCOCCOCCOc2ccc(C)n(O)c2=S)c(=S)n1O | < 0.01 | 50.8 |
| N#CC(=Nc1ccccc1N(C(=O)c1ccccc1)C(=O)c1ccccc1)c1ccccc1 | – | > 100 |
| COc1c(C)n(CCO)ccc1=O | – | > 100 |
| COC(=O)C(=O)C(C(C)=O)C(=O)NCc1ccc(OC)c(OC)c1 (centres undefined) | – | > 100 |
| Nc1c(-c2ccccc2-c2c(N)[n+]([O-])c3ccccc3[n+]2[O-])[n+]([O-])c2ccccc2[n+]1[O-] | – | > 100 |
| CCOC(=O)NC(=O)c1cn(C(CC)COC(=O)NCCCCCCNC(=O)OCC(CC)n2cc(C(=O)NC(=O)OCC)c(=O)[nH]c2=O)c(=O)[nH]c1=O (centres undefined) | – | > 100 |

| Structure (SMILES) | GI50 [µM] | TGI [µM] |
| --- | --- | --- |
| O=C(CC(=O)C1CCOC1=O)C(=O)Nc1cccc(Cl)c1 (centres undefined) | – | > 100 |
| CCN1c2ccccc2-c2c3c1cc(C)cc3c1ccccc1[n+]2CC | – | 2.39 |
| Cc1cccc(C2=C/C(=C(\SS/C(C(=O)c3ccc(OCC(=O)O)c(Cl)c3Cl)=C3\C=C(c4cccc(C)c4)SS3)C(=O)c3ccc(OCC(=O)O)c(Cl)c3Cl)SS2)c1 | – | 50.8 |
| CC(=O)N1CCN(c2ccc(OCC3COC(Cn4ccnc4)(c4ccc(Cl)cc4Cl)O3)cc2)CC1 (centres undefined) | – | > 100 |
| O=C(Cc1nc2c3c(ccc2[nH]c1=O)C(=O)c1ccccc1C3=O)C(=O)Nc1ccccc1[N+](=O)[O-] | – | 25.6 |
| Nc1nc(-c2ccc(Cl)c([N+](=O)[O-])c2)cs1 | – | > 100 |
| COc1cc(/C=C2\[C@H]3c4c(c(OC)c(C)c(OC)c4OC)CC(C(=O)N2Cc2ccccc2)N3C)c(OC)c(C)c1OC | – | 31.2 |
| COc1ccc(C(CC(=O)c2ccc3c(c2)OCO3)c2c(O)c3ccccc3oc2=O)cc1OC (centres undefined) | – | > 100 |
| COC(=O)/C([Se]c1c(C)cc(C)cc1C)=C(/[Se]c1c(C)cc(C)cc1C)C(=O)OC | – | > 100 |
| NC(=O)C(=O)CC(=O)c1ccccc1NC1=CC(=O)C(=O)c2ccccc21 | – | > 100 |
| Cc1cc2c(c(C(N)=O)c1C)-c1ccccc1C2=O | – | > 100 |
| CCCC(=O)C1=C(O)C(Cc2c(O)c(C)c(O)c(C(=O)CCC)c2O)=C(O)C(C)(C)C1=O | – | > 50 |
| COC(=O)/C(=N/O)C(C(=O)C=C(C)C)C(=O)C(=O)Nc1nc2ccc([N+](=O)[O-])cc2s1 (centres undefined) | – | 76.1 |
| Cc1ccccc1C1=[N+]([O-])c2ccc(Cl)cc2C1=O | – | 7.17 |
| c1coc(-c2c3ccc(=[N+]4CCCCC4)cc-3oc3cc(N4CCCCC4)ccc23)c1 | 0.033 | 0.126 |
| Cc1[nH]c2ccccc2c1C1Cc2ccccc2N1C(=O)C#Cc1ccc([N+](=O)[O-])cc1 (centres undefined) | – | > 100 |
| CCC/C=C/C=C/C1CC(O)C(O)C(=O)C1CO (centres undefined) | – | > 100 |
| CCOC(=O)NC(=O)c1cn(C2CCCCC2)c(=O)[nH]c1=O | – | > 100 |
| Cn1c(=O)nc2n(-c3cc(C(F)(F)F)cc(C(F)(F)F)c3)c3ccccc3nc-2c1=O | – | > 100 |

test system: SK-MEL-28 melanoma; test: NCI anticancer screen, dose series, 48 h

| Structure (SMILES) | GI50 [µM] | TGI |
| --- | --- | --- |
| O=C1CCCN1c1ccccc1I(=O)=O | > 100 | > 100 µM |
| O=C(O)c1cccc(COc2ccc([N+](=O)[O-])cc2Cl)c1 | > 100 | > 100 µM |
| Nc1ccccc1C(=O)/C=C/c1c(O)ccc2ccccc12 | – | > 100 µM |
| CCC(C)(O)c1cnc(CC(C)C)c(=O)n1O (centres undefined) | – | > 100 µM |
| CCC1CN2CCc3cc(OC)c(OC)cc3C2CC1CC1c2cc(OC)c(OC)cc2CCN1C(=O)C1CCCN1 (centres undefined) | – | 50.9 µM |
| CC(C(=O)c1ccc(Cl)cc1)/C(=N/NC(=O)NN)C(=O)Nc1cccc(C(F)(F)F)c1 (centres undefined) | – | > 100 µM |
| CCOP(=O)(OCC)C(C(=O)OC)C(=O)C(=O)Nc1ccc(Cl)cc1Cl (centres undefined) | – | > 100 µM |
| Cn1cc(-c2csc(-c3cn(CCCCN4CCCCC4)c4ccccc34)n2)c2cccnc21 | 1.7 | 3.12 µM |
| CC(C)=C1CCC(CN(C)C)C1=O (centres undefined) | – | 34 µM |
| COc1cccc(/C=N/[N-]C(=O)c2ccncc2)c1[O-].COc1cccc(/C=N/[N-]C(=O)c2ccncc2)c1[O-].[O]=[U](=[O])([OH2+])[OH2+] | 10 | > 56.7 µM |
| ClC(Cl)=C1C(=C(Cl)Cl)C(Cl)(Cl)C1(Cl)Cl | – | 4.06 µM |
| CC(C)(C)c1ccc2c(c1)S(=O)(=O)Nc1ccc(Cl)cc1NS(=O)(=O)c1cc(C(C)(C)C)ccc1OCCOCCOCCO2 | – | > 100 µM |
| O=C1c2ccccc2-c2c1c1ccccc1c(=O)n2CCN1CCNCC1 | 5.82 | 27.6 µM |
| Cc1ccc(OCCOCCOCCOCCOc2ccc(C)n(O)c2=S)c(=S)n1O | 0.356 | > 100 µM |
| N#CC(=Nc1ccccc1N(C(=O)c1ccccc1)C(=O)c1ccccc1)c1ccccc1 | – | > 100 µM |
| COc1c(C)n(CCO)ccc1=O | – | > 100 µM |
| COC(=O)C(=O)C(C(C)=O)C(=O)NCc1ccc(OC)c(OC)c1 (centres undefined) | – | > 100 µM |

| Structure (SMILES) | GI50 [µM] | TGI |
| --- | --- | --- |
| Nc1c(-c2ccccc2-c2c(N)[n+]([O-])c3ccccc3[n+]2[O-])[n+]([O-])c2ccccc2[n+]1[O-] | – | > 100 µM |
| CCOC(=O)NC(=O)c1cn(C(CC)COC(=O)NCCCCCCNC(=O)OCC(CC)n2cc(C(=O)NC(=O)OCC)c(=O)[nH]c2=O)c(=O)[nH]c1=O (centres undefined) | – | > 100 µM |
| O=C(CC(=O)C1CCOC1=O)C(=O)Nc1cccc(Cl)c1 (centres undefined) | – | > 100 µM |
| CCN1c2ccccc2-c2c3c1cc(C)cc3c1ccccc1[n+]2CC | – | 2.46 µM |
| Cc1cccc(C2=C/C(=C(\SS/C(C(=O)c3ccc(OCC(=O)O)c(Cl)c3Cl)=C3\C=C(c4cccc(C)c4)SS3)C(=O)c3ccc(OCC(=O)O)c(Cl)c3Cl)SS2)c1 | – | 87.4 µM |
| CC(=O)N1CCN(c2ccc(OCC3COC(Cn4ccnc4)(c4ccc(Cl)cc4Cl)O3)cc2)CC1 (centres undefined) | – | > 100 µM |
| O=C(Cc1nc2c3c(ccc2[nH]c1=O)C(=O)c1ccccc1C3=O)C(=O)Nc1ccccc1[N+](=O)[O-] | – | 30.3 µM |
| CC1=C(C#N)C(=O)CC(c2ccc(Cl)cc2)N(C)N1 (centres undefined) | – | > 100 µM |
| COc1cc(/C=C2\[C@H]3c4c(c(OC)c(C)c(OC)c4OC)CC(C(=O)N2Cc2ccccc2)N3C)c(OC)c(C)c1OC | – | 64.2 µM |
| CN(C)C(=S)SSC(=S)N(C)C | 17.8 | 42.4 µM and > 89.9 µM and > 54 µM |
| COc1ccc(C(CC(=O)c2ccc3c(c2)OCO3)c2c(O)c3ccccc3oc2=O)cc1OC (centres undefined) | – | > 100 µM |
| O=C(N/C(=C\c1ccc([N+](=O)[O-])cc1)c1nc2ccccc2[nH]1)c1ccccc1 | – | > 100 µM |
| NC(=O)C(=O)CC(=O)c1ccccc1NC1=CC(=O)C(=O)c2ccccc21 | – | > 100 µM |
| Cc1cc2c(c(C(N)=O)c1C)-c1ccccc1C2=O | – | > 100 µM |
| CCCC(=O)C1=C(O)C(Cc2c(O)c(C)c(O)c(C(=O)CCC)c2O)=C(O)C(C)(C)C1=O | – | > 50 µM |
| COC(=O)/C(=N/O)C(C(=O)C=C(C)C)C(=O)C(=O)Nc1nc2ccc([N+](=O)[O-])cc2s1 (centres undefined) | – | > 100 µM |
| Cc1ccccc1C1=[N+]([O-])c2ccc(Cl)cc2C1=O | – | 35.9 µM |
